Measured values reported in ChEMBL document CHEMBL1158268, “Antiplatelet of vasorelaxing actions of some benzylisoquinoline and phenanthrene alkaloids” (1996).

Key:
Parameters in all cases: scale not given: the % may be the effect or the level left
Platelet [1] = test: Inhibition of arachidonic acid-induced platelet aggregation in rabbit platelet-rich plasma at 100 ug/ml by turbidimetric method; type: functional, Oryctolagus cuniculus
Platelet [2] = test: Inhibition of adenosine diphosphate-induced platelet aggregation in rabbit platelet-rich plasma at 100 ug/ml by turbidimetric method; type: functional, Oryctolagus cuniculus
Platelet [3] = test: Inhibition of collagen-induced platelet aggregation in rabbit platelet-rich plasma at 100 ug/ml by turbidimetric method; type: functional, Oryctolagus cuniculus
Platelet [4] = test: Inhibition of platelet-activity factor-induced platelet aggregation in rabbit platelet-rich plasma at 100 ug/ml by turbidimetric method; type: functional, Oryctolagus cuniculus
Aorta [5] = test: Vasorelaxant activity against high potassium-induced contraction in Wistar rat thoracic aorta at 100 ug/ml; type: functional
Aorta [6] = test: Vasorelaxant activity against norepinephrine-induced tonic contraction in Wistar rat thoracic aorta at 100 ug/ml; type: functional
Aorta [7] = test: Vasorelaxant activity against norepinephrine-induced phasic contraction in Wistar rat thoracic aorta at 100 ug/ml; type: functional
Platelet [8] = test: Inhibition of arachidonic acid-induced platelet aggregation in rabbit platelet-rich plasma at 50 ug/ml by turbidimetric method; type: functional, Oryctolagus cuniculus
Platelet [9] = test: Inhibition of adenosine diphosphate-induced platelet aggregation in rabbit platelet-rich plasma at 50 ug/ml by turbidimetric method; type: functional, Oryctolagus cuniculus
Platelet [10] = test: Inhibition of platelet-activity factor-induced platelet aggregation in rabbit platelet-rich plasma at 50 ug/ml by turbidimetric method; type: functional, Oryctolagus cuniculus
Platelet [11] = test: Inhibition of collagen-induced platelet aggregation in rabbit platelet-rich plasma at 50 ug/ml by turbidimetric method; type: functional, Oryctolagus cuniculus
Aorta [12] = test: Vasorelaxant activity against norepinephrine-induced tonic contraction in Wistar rat thoracic aorta at 20 ug/ml; type: functional
Aorta [13] = test: Vasorelaxant activity against high potassium-induced contraction in Wistar rat thoracic aorta at 20 ug/ml; type: functional
Aorta [14] = test: Vasorelaxant activity against norepinephrine-induced phasic contraction in Wistar rat thoracic aorta at 20 ug/ml; type: functional
Platelet [15] = test: Inhibition of adenosine diphosphate-induced platelet aggregation in rabbit platelet-rich plasma at 25 ug/ml by turbidimetric method; type: functional, Oryctolagus cuniculus
Platelet [16] = test: Inhibition of platelet-activity factor-induced platelet aggregation in rabbit platelet-rich plasma at 25 ug/ml by turbidimetric method; type: functional, Oryctolagus cuniculus
Platelet [17] = test: Inhibition of arachidonic acid-induced platelet aggregation in rabbit platelet-rich plasma at 25 ug/ml by turbidimetric method; type: functional, Oryctolagus cuniculus
Platelet [18] = test: Inhibition of collagen-induced platelet aggregation in rabbit platelet-rich plasma at 25 ug/ml by turbidimetric method; type: functional, Oryctolagus cuniculus
Aorta [19] = test: Vasorelaxant activity against high potassium-induced contraction in Wistar rat thoracic aorta at 50 ug/ml; type: functional
Aorta [20] = test: Vasorelaxant activity against norepinephrine-induced tonic contraction in Wistar rat thoracic aorta at 50 ug/ml; type: functional
Aorta [21] = test: Vasorelaxant activity against norepinephrine-induced phasic contraction in Wistar rat thoracic aorta at 50 ug/ml; type: functional
Aorta [22] = test: Vasorelaxant activity against high potassium-induced contraction in Wistar rat thoracic aorta at 1 ug/ml; type: functional
Aorta [23] = test: Vasorelaxant activity against norepinephrine-induced tonic contraction in Wistar rat thoracic aorta at 1 ug/ml; type: functional
Aorta [24] = test: Vasorelaxant activity against norepinephrine-induced phasic contraction in Wistar rat thoracic aorta at 1 ug/ml; type: functional

| Structure (SMILES) | Activity (Platelet [1]) [%] | Activity (Platelet [2]) [%] | Activity (Platelet [3]) [%] | Activity (Platelet [4]) [%] | Activity (Aorta [5]) [%] | Activity (Aorta [6]) [%] | Activity (Aorta [7]) [%] | also measured |
| --- | --- | --- | --- | --- | --- | --- | --- | --- |
| COc1ccc(C[C@@H]2c3cc(OC)c(OC)cc3CCN2C)cc1OC | 81.2 | 92.2 | 81.4 | 92.5 | – | – | – | – |
| COc1cc2ccc3c(CCN(C)C)cc4c(c3c2cc1OC)OCO4 | 46.9 | 34.9 | 6.1 | 80.5 | 44.6 | 0 | 7.1 | – |
| COc1ccc2c(ccc3c(CCN(C)O)cc4c(c32)OCO4)c1 | – | – | – | – | 55.8 | 91.9 | 102 | Activity (Platelet [8]): 0%; Activity (Platelet [9]): 58.6%; Activity (Platelet [10]): 74.8%; Activity (Platelet [11]): 23.5% |
| COc1cc(CC[N+](C)(C)[O-])c2ccc3ccccc3c2c1OC | 0 | 37.4 | 0 | 61.1 | 5.8 | 27.5 | 30 | – |
| COc1cc2ccc3c(CC[N+](C)(C)[O-])cc(OC)c(OC)c3c2cc1OC | 83.5 | 74.6 | 52.1 | 87.2 | – | – | – | Activity (Aorta [12]): 83.2%; Activity (Aorta [13]): 104.2%; Activity (Aorta [14]): 72.5% |
| COc1cc2c(cc1OC)[C@H](Cc1ccc(O)cc1)NCC2.[O-][Cl+3]([O-])([O-])O | 60.5 | 63.1 | 83.6 | 78.2 | 43 | 90.5 | 100 | – |
| COc1ccc(C[C@@H]2NCCc3cc(OC)c(OC)cc32)cc1.O=C(O)C(=O)O | 87.3 | 93.4 | 86.6 | 91.4 | – | – | – | – |
| COc1ccc(C[C@H]2NCCc3cc(OC)c(OC)cc32)cc1 | 89.2 | 93.1 | 79.2 | 90.7 | – | – | – | – |
| COc1cc2c(cc1OC)[C@H](Cc1ccc(O)cc1)N(C)CC2.O=C(O)C(=O)O | 79.5 | 89.7 | 82.4 | 91.5 | – | – | – | – |
| COc1cc2c(cc1OC)[C@@H](Cc1ccc(O)cc1)N(C)CC2.O=C(O)C(=O)O | 91.3 | 92.7 | 88.4 | 93.6 | – | – | – | – |
| COc1cc2c(cc1OC)[C@H](Cc1ccc(O)cc1)[N+](C)(C)CC2.[I-] | 66.8 | 93.7 | 39.6 | 88.4 | – | – | – | – |
| COc1cc2c(cc1OC)C(Cc1ccc(O)cc1)NCC2 (racemic) | 49.7 | 30.4 | 24.7 | 86.4 | 107.8 | 95.7 | 103 | – |
| COc1cc2c(cc1O)C(Cc1ccc(O)cc1)NCC2 (racemic) [COCLAURINE] | 0 | 70.2 | 69.7 | 72.7 | 109.9 | 93.7 | 100 | – |
| COc1cc2c(cc1O)C(Cc1ccc(O)cc1)N(C)CC2 (racemic) [METHYL COCLAURINE] | 13.8 | 73.6 | 24.8 | 75.7 | – | – | – | Activity (Aorta [12]): 106.6%; Activity (Aorta [13]): 70.8%; Activity (Aorta [14]): 149.6% |
| COc1ccc(C[C@H]2c3cc(O)c(OC)cc3CCN2C)cc1O [(S)-RETICULINE] | 39.2 | 58.7 | 84.2 | 85.9 | 109.3 | 110.5 | 100 | – |
| CC(=O)Oc1ccccc1C(=O)O [ASPIRIN] | – | – | – | – | – | – | – | Activity (Platelet [15]): 77.9%; Activity (Platelet [16]): 90.4%; Activity (Platelet [17]): 0%; Activity (Platelet [18]): 87.8% |
| COc1cc(CCN(C)C)c2ccc3ccccc3c2c1OC.[O-][Cl+3]([O-])([O-])O [ATHEROSPERMININE HCLO4] | 0 | 0 | 0 | 0 | 0 | 0 | 0 | – |
| COc1cc(CC[N+](C)(C)C)c2ccc3ccccc3c2c1OC.[I-] [ATHEROSPERMINIUM I] | 0 | 0 | 0 | 0 | – | – | – | Activity (Aorta [12]): 100.5%; Activity (Aorta [13]): 38.3%; Activity (Aorta [14]): 108.3% |
| COc1ccc(C[C@H]2c3cc(OC)c(OC)cc3CCN2C)cc1O [LAUDANIDINE] | – | – | – | – | – | – | – | Activity (Platelet [8]): 89%; Activity (Platelet [9]): 77.6%; Activity (Aorta [19]): 105%; Activity (Platelet [10]): 90%; Activity (Aorta [20]): 80.9%; Activity (Aorta [21]): 58.5%; Activity (Platelet [11]): 87.9% |
| COc1cc2c(cc1O)[C@@H](Cc1ccc(O)cc1)[N+](C)(C)CC2.[I-] [MAGNOCURARINE IODIDE] | 87.4 | 69 | 87.7 | 23.2 | 134.7 | 123.5 | 122.5 | – |
| COC(=O)C1=C(C)NC(C)=C(C(=O)OC)C1c1ccccc1[N+](=O)[O-] [NIFEDIPINE] | – | – | – | – | – | – | – | Activity (Aorta [22]): 0% |
| COc1cc2c(cc1OC)[C@H](Cc1ccc(O)cc1)NCC2 [NORARMEPAVINE] | 75.5 | 69.7 | 83.4 | 57.8 | 71.2 | 105.7 | 121.9 | – |
| COc1cc2nc(N3CCN(C(=O)c4ccco4)CC3)nc(N)c2cc1OC [PRAZOSIN] | – | – | – | – | – | – | – | Activity (Aorta [23]): 100%; Activity (Aorta [24]): 0% |
